Assay results from article PMC3183052, “Immunoprotectivity of HLA-A2 CTL Peptides Derived from Respiratory Syncytial Virus Fusion Protein in HLA-A2 Transgenic Mouse” (PLoS ONE, 2011).

Legend:
HLA-A*0201 = target: T1, HLA-A*0201 (Homo sapiens, UniProt P04439, D140Y/D185E/D98H/E176V/E277Q/G131W/G231S/I119V/I121R/I166T/I218V/L300P/L318F/N151K/N90K/P208A/P217A/Q86G/Q94H/R138H/R169H/T345S); experiment: T2 cell-stabilization assay (T2-binding); settings: for T2-binding Ratio of MFI: T2 cells 5×10^5, peptide 50 µg/mL + β2-microglobulin 5 µg/mL, 28°C 16–18 h, then brefeldin A 10 µg/mL 37°C 3 h, FITC anti-HLA-A2, flow cytometry, MFI relative to negative control HCV C55-74 (set as 1); for binding affinity, MFI higher than the baseline: baseline = negative control HCV C55-74, called modest binding affinity
T1 construct: Human T2 cells (purchased from the American Type Culture Collection, ATCC) (ATCC No. CRL-1992) expressing the HLA-A*0201 gene; endogenous in cells; host or cells: human T2 cells (ATCC CRL-1992)
Protocol: T2 cells (5×10^5) cultured in 96-well U-bottom plates were incubated with the individual 9-mer synthetic peptides (50 µg/mL) and β2-microglobulin (5 µg/mL; Sigma-Aldrich) at 28°C for 16–18 hours. Subsequently, brefeldin A (10 µg/mL) was added and the cells were incubated at 37°C for another 3 hours, then washed and stained with fluorescence isothiocyanate (FITC)-conjugated mouse anti-human HLA-A2 antibody (SeroTec). Peptide-loaded T2 cells were acquired and analyzed on the FACScan flow cytometer using CellQuest software (Becton Dickinson). GLC-9 peptide was used as positive control (PC). The mean fluorescence intensity (MFI) represents the binding affinity of each peptide compared to MFI (set as MFI = 1) obtained from negative control (NC), which is T2 cells loaded with HCV peptide C55-74.
Twenty-five 9-mer synthetic peptides derived from the RSV F glycoprotein sequence presumed to encompass HLA-A*0201 binding motifs were synthesized (Table 1). Each was tested for its ability to bind HLA-A*0201 molecules by T2 cell-based binding assay (data not shown). The relative mean fluorescence intensity (MFI) obtained from the positive control (PC) peptide derived from Epstein-Barr virus capsid protein (GLC-9, a previously defined HLA-A*0201-restricted CTL epitope) was twofold (MFI = 1.96) compared to the baseline MFI = 1 obtained from the negative control (NC) treated with an unrelated peptide HCV C55-74 (a C57BL/6-specific CD4 epitope). […] The remaining peptides had no detectable binding to the HLA-A*0201 molecules. Apparently, the different MFIs generated by binding of RSV F-derived peptides to HLA-A*0201 reflects on the binding specificity of different peptides to a given HLA molecule.

[1] = test system: splenocytes from HLA-A*0201 transgenic C57BL/6 mice; experiment: IFN-γ ELISPOT of splenocytes restimulated with peptide; assay type: cell-based, mouse; settings: for IFN-γ ELISPOT, RSV: splenocytes of HLA-Tg B6 mice primed and boosted i.n. with 10^4 pfu RSV-B1; for IFN-γ ELISPOT, RSV / IFN-γ ELISPOT, rAd-F0: restimulated with 2 µg peptide, representative of two experiments, five mice per group; for IFN-γ ELISPOT, rAd-F0: splenocytes of HLA-Tg B6 mice primed and boosted i.n. with 10^7 pfu rAd-F0; for IFN-γ level in restimulated splenocytes (ELISPOT, text grading): splenocytes of rAd-F0- or RSV B1-primed and boosted HLA-Tg B6 mice, high = over 100 spots, moderate = over 50 spots
Protocol: (§1) To screen the immunodominance of epitopic peptide in the induction of RSV-F specific Th1/Th2 expression, HLA-A*0201 transgenic C57BL/6 mice were anesthetized with isoflurane and immunized with 1×10^7 pfu/50 µL of rAd-F0 or rAd-LacZ or 1×10^4 live RSV B1 via the intranasal (i.n.) route. Twenty days later, the mice were given booster immunization i.n. with the same dose. After 10 days of boost, mice were sacrificed and splenocytes were isolated for the cytokine ELISPOT assay. For peptide-based vaccination, transgenic mice were immunized subcutaneously (s.c.) with 50 µg of the individual synthetic peptides emulsified in 25 µL of incomplete Freund's adjuvant (IFA) (Sigma-Aldrich) and then boosted after 10 days s.c. with the same dose of the respective peptides mixed with IFA. Mice were sacrificed 7 days after the booster and splenocytes were isolated for in vitro peptide-restimulation. For challenge studies, 10^7 pfu of live RSV-B1 was administered i.n. seven days after the booster immunization with peptide vaccines. Mice were sacrificed on day 4 post-challenge and the lung tissues were collected and subjected to further analysis by flow cytometry, ELISA, CTL assay and immunohistochemistry. Mice body weight was monitored daily.
(§2) […] RBC-free splenocyte suspensions prepared from the individual mice were seeded in individual wells of 96-well filtration plates (Millipore) precoated with capturing monoclonal antibodies for murine IL-2, IL-4 or IFN-γ (0.5 µg/ well) (eBioscience) and blocked with conditioned medium (CM) for 1 hour at room temperature. The splenocytes were added with the individual RSV F 9-mer synthetic peptides (2 µg each) or GLC-9 dissolved in CM (100 µL). The splenocytes added with Con A (10 µg/mL) were used as positive control. Unstimulated splenocytes were used as negative control. The plates were kept in a 37°C incubator equilibrated with 5% CO2 for 48 hours. The individual wells of the ELISPOT plates were washed three times with washing buffer (0.05% tween20 in PBS, PBS-T), and then 0.2 µg of the corresponding biotinylated detection monoclonal antibodies specific for IL-2, IL-4 and IFN-γ were added to detect the respective cytokines. After 2 hours of incubation at room temperature, the plates were washed and 100 µl of streptavidin-alkaline phosphatase (1∶ 250 dilution) was added to the individual wells, and the plates were incubated at room temperature for 45 minutes. Finally, the plates were washed four times with the wash buffer, and 100 µl of AEC (3-amine-9-ethylcarbazole, Sigma-Aldrich) substrate was added to each well and allowed to react for 30 minutes at room temperature in the dark. The plates were then washed with water, air-dried overnight, and the spots per well were scored using the immunospot counting reader (C.T.L. IMMUNOSPOT, CELLULAR TECHNOLOGY LTD). Results were expressed as the number of cytokine-secreting cells per 5×10^5 splenocytes seeded in the initial culture.
(§3) Figure 1 Induction of IFN-γ and IL-2 in splenocytes from RSV F peptide immunized HLA-A*0201 transgenic mice upon secondary recall. Splenocytes harvested on day 30 from HLA-A-Tg B6 mice primed and boosted at 20 days interval intranasally with 10^7 pfu of rAd-F0 (□) or 10^4 pfu of RSV-B1 (▪)were restimulated with 2 µg of the individual RSV F peptide or 10 µg/ml Con A for 5 days in the presence of murine IL-2 . After stimulation, 5×10^5 splenocytes were seeded to anti-IFN-γ (A) or anti-IL-2 (B) capture antibody coated ELISPOT plates for 2 days for ELISPOT assay as described in Materials and Methods. Cytokine-positive immunospots were developed and the results are expressed as the number of immunospots +/−2 standard deviations for each experimental group. Data is representative of results derived from two independent experiments, each with five mice per group.

[2] = test system: splenocytes from HLA-A*0201 transgenic C57BL/6 mice; experiment: IL-2 ELISPOT of splenocytes restimulated with peptide; assay type: cell-based, mouse; settings: for IL-2 ELISPOT, RSV: splenocytes of HLA-Tg B6 mice primed and boosted i.n. with 10^4 pfu RSV-B1; for IL-2 ELISPOT, RSV / IL-2 ELISPOT, rAd-F0: restimulated with 2 µg peptide, representative of two experiments, five mice per group; for IL-2 ELISPOT, rAd-F0: splenocytes of HLA-Tg B6 mice primed and boosted i.n. with 10^7 pfu rAd-F0; for IL-2 level in restimulated splenocytes (ELISPOT, text grading): splenocytes of rAd-F0- or RSV B1-primed and boosted HLA-Tg B6 mice, high = over 100 spots, moderate = over 50 spots
Protocol: as §1, §2, §3

| Substance | T2-binding Ratio of MFI (HLA-A*0201) | IFN-γ ELISPOT, RSV [1] | IFN-γ ELISPOT, rAd-F0 [1] | IFN-γ level in restimulated splenocytes (ELISPOT, text grading) [1] | IL-2 ELISPOT, RSV [2] | IL-2 ELISPOT, rAd-F0 [2] | IL-2 level in restimulated splenocytes (ELISPOT, text grading) [2] | binding affinity, MFI higher than the baseline (HLA-A*0201; T2 cell-based binding assay) | binding to the HLA-A*0201 molecules (in words) (HLA-A*0201; T2 cell-based binding assay) | T2-binding Ratio of MFI (HLA-A*0201; listed as N) |
| --- | --- | --- | --- | --- | --- | --- | --- | --- | --- | --- |
| 4: HLA-A*0201-restricted 9-mer synthetic peptide from F protein of RSV-B1 strain (ELDKYKNAV) [compound 4] | 0.94 | 34.5 cytokine-secreting cells per 5×10^5 splenocytes | 88.5 cytokine-secreting cells per 5×10^5 splenocytes | over 50 spots | 51.5 cytokine-secreting cells per 5×10^5 splenocytes | 49.5 cytokine-secreting cells per 5×10^5 splenocytes | over 50 spots |  |  |  |
| 5: HLA-A*0201-restricted 9-mer synthetic peptide from F protein of RSV-B1 strain (FMNYTLNNT) [compound 5] | 0.96 | 12.5 cytokine-secreting cells per 5×10^5 splenocytes | 73 cytokine-secreting cells per 5×10^5 splenocytes | over 50 spots | 58.5 cytokine-secreting cells per 5×10^5 splenocytes | 38 cytokine-secreting cells per 5×10^5 splenocytes | over 50 spots |  |  |  |
| 6: HLA-A*0201-restricted 9-mer synthetic peptide from F protein of RSV-B1 strain (FLLGVGSAI) [compound 6] | 1.14 | 61.5 cytokine-secreting cells per 5×10^5 splenocytes | 65 cytokine-secreting cells per 5×10^5 splenocytes | over 50 spots | 32 cytokine-secreting cells per 5×10^5 splenocytes | 29 cytokine-secreting cells per 5×10^5 splenocytes |  | ~10% |  |  |
| 7: HLA-A*0201-restricted 9-mer synthetic peptide from F protein of RSV-B1 strain (HLEGEVNKI) [compound 7] | 0.83 | 81 cytokine-secreting cells per 5×10^5 splenocytes | 68.5 cytokine-secreting cells per 5×10^5 splenocytes | over 50 spots | 33 cytokine-secreting cells per 5×10^5 splenocytes | 68 cytokine-secreting cells per 5×10^5 splenocytes | over 50 spots |  |  |  |
| 8: HLA-A*0201-restricted 9-mer synthetic peptide from F protein of RSV-B1 strain (ALLSTNKAV) [compound 8] | 1.50 | 86 cytokine-secreting cells per 5×10^5 splenocytes | 36 cytokine-secreting cells per 5×10^5 splenocytes | over 50 spots | 43 cytokine-secreting cells per 5×10^5 splenocytes | 8.5 cytokine-secreting cells per 5×10^5 splenocytes |  | ~10% |  |  |
| 9: HLA-A*0201-restricted 9-mer synthetic peptide from F protein of RSV-B1 strain (LLSTNKAVV) [compound 9] | 1.53 | 1 cytokine-secreting cells per 5×10^5 splenocytes | 27.5 cytokine-secreting cells per 5×10^5 splenocytes |  | 2 cytokine-secreting cells per 5×10^5 splenocytes | 5 cytokine-secreting cells per 5×10^5 splenocytes |  |  |  |  |
| 10: HLA-A*0201-restricted 9-mer synthetic peptide from F protein of RSV-B1 strain (STNKAVVSL) [compound 10] | 0.91 | 9.5 cytokine-secreting cells per 5×10^5 splenocytes | 43 cytokine-secreting cells per 5×10^5 splenocytes |  | 39.5 cytokine-secreting cells per 5×10^5 splenocytes | 0 cytokine-secreting cells per 5×10^5 splenocytes |  |  |  |  |
| 11: HLA-A*0201-restricted 9-mer synthetic peptide from F protein of RSV-B1 strain (SLSNGVSVL) [compound 11] | 1.06 | 200 cytokine-secreting cells per 5×10^5 splenocytes | 68.5 cytokine-secreting cells per 5×10^5 splenocytes | over 100 spots | 56.5 cytokine-secreting cells per 5×10^5 splenocytes | 51.5 cytokine-secreting cells per 5×10^5 splenocytes | over 50 spots |  |  |  |
| 12: HLA-A*0201-restricted 9-mer synthetic peptide from F protein of RSV-B1 strain (VLTSKVLDL) [compound 12] | 0.99 | 116.5 cytokine-secreting cells per 5×10^5 splenocytes | 95.5 cytokine-secreting cells per 5×10^5 splenocytes | over 100 spots | 36 cytokine-secreting cells per 5×10^5 splenocytes | 44 cytokine-secreting cells per 5×10^5 splenocytes |  |  |  |  |
| RPQPRGRRQPIPKARQPEGR [HCV C55-74, reference compound] | 1 |  |  |  |  |  |  |  | no binding | 1.00 |
